From ChEMBL document CHEMBL1201862, “PubChem BioAssay data set” (2004)
Calls of active or inactive are those of the source.

Key:
[1] = test system: INS1; test: suppression of NO production in INS-1E cells – cell-based, Griess absorbance, dry powder, set 2, dose response (AID 488868); format: functional; conditions: Rattus norvegicus
[2] = suppression of NO production in INS-1E cells – cell-based, Griess absorbance, dry powder, set 3, dose response (AID 488870); format: functional; conditions: Rattus norvegicus
[3] = molecular target: T1, Luciferin 4-monooxygenase (Photinus pyralis, UniProt P08659); test: inhibition of purified Photinus pyralis luciferase – biochemical, luminescence, dose response (AID 1891)
[4] = molecular target: Heat shock protein HSP 90-alpha (Homo sapiens, UniProt P07900); format: functional, organism-based
[5] = Luminescence Cell-Based Dose Confirmation HTS to Identify Inhibitors of Platelet Dense Granule Release. [Related pubchem assays: 1663 (Primary HTS), 1678 (Summary of Project)]; format: functional
[6] = molecular target: HSP90 (Plasmodium falciparum 3D7, UniProt Q8IL32); format: functional, organism-based
[7] = molecular target: T2, Streptokinase A (Streptococcus pyogenes serotype M1, UniProt P10520); test: viability-normalized secreted streptokinase activity reduction – plasminogen activation absorbance, OD405, dose response (AID 1914); format: functional, Streptococcus pyogenes M1 GAS;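 further: secreted streptokinase activity via plasminogen activation per viability signal from cell pellet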
T2 sequence (P10520 whole entry): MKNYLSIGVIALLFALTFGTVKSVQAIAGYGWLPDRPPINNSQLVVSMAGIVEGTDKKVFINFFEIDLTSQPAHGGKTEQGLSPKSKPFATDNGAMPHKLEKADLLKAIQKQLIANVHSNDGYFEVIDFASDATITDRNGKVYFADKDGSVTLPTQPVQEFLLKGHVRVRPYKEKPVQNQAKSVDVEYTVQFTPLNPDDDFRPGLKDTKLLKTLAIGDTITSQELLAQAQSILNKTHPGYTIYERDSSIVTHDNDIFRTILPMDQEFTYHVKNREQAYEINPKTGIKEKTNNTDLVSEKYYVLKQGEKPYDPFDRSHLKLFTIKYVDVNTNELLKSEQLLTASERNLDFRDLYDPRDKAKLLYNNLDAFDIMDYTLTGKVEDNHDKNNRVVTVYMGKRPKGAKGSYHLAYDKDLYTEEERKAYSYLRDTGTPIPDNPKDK

[8] = test system: Streptococcus; test: GAS UMAA2166 growth inhibition – luminescence, BacTiterGlo, counter-screen for streptokinase expression inhibitor project, dose response (AID 1915); format: functional, organism-based;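 further: potency for reduction of bacterial viability or growth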
[9] = molecular target: Dual specificity tyrosine-phosphorylation-regulated kinase 1A (Rattus norvegicus, UniProt Q63470); format: biochemical, Homo sapiens
[10] = molecular target: Apelin receptor (Homo sapiens, UniProt P35414); test: apelin receptor antagonists, arrestin read-out – cell-based, luminescent, enzyme-fragment complementation, selectivity assay for CCR6 antagonist project, SAR follow-up (AID 588359); format: functional
[11] = molecular target: C-X-C chemokine receptor type 5 (Homo sapiens, UniProt P32302); test: inhibition of CXCL13-driven CXCR5 beta-arrestin recruitment – cell-based, luminescence, CHO-K1 PathHunter, selectivity assay for CCR6 antagonist project, SAR follow-up (AID 540340); format: functional
[12] = molecular target: T3, Heat shock factor protein 1 (Mus musculus, UniProt P38532); test: enhancement of HSF1-driven luciferase signal – cell-based, NIH3T3, luminescence, dose retest, confirmation (AID 435004); format: functional;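 further: stress induced by proteasome inhibitor MG132 added 30 min after compound; luciferase reporter driven by HSF1 response element in NIH3T3 cells; actives raise luminescence as potentiators of the MG132 stress response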
T3 sequence (P38532 whole entry): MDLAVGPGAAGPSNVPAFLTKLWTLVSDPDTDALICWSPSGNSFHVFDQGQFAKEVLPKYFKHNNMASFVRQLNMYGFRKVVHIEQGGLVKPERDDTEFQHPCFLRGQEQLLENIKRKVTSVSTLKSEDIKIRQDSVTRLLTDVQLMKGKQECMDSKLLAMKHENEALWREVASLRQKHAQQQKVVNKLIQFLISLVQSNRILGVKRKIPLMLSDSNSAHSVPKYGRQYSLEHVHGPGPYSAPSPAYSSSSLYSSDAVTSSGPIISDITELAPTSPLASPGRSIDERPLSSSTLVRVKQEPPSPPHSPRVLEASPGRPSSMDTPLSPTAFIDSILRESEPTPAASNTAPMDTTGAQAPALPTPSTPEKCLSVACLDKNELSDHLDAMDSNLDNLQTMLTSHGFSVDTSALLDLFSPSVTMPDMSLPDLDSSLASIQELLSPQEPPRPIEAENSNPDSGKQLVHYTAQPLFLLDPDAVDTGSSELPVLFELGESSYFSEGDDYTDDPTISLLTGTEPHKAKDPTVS

[13] = molecular target: T4, C-C chemokine receptor type 6 (Homo sapiens, UniProt P51684); test: analog antagonism of CCR6 beta-arrestin signaling – cell-based, luminescent beta-arrestin readout, SAR follow-up (AID 540334); format: functional
T4 sequence (P51684 whole entry): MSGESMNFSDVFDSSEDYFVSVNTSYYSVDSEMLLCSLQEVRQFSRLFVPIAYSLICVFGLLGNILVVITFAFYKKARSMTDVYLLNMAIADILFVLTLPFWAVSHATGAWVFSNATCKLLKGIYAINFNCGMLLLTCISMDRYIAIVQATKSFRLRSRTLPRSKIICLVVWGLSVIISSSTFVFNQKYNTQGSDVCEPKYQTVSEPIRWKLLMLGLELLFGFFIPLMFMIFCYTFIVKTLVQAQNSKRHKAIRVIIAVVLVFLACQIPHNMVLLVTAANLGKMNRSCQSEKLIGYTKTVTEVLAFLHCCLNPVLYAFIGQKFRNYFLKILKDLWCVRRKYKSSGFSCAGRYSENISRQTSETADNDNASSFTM

[14] = molecular target: T4, C-C chemokine receptor type 6; test: antagonism of CCR6 beta-arrestin recruitment – cell-based, luminescent beta-arrestin readout, dose response (AID 504728); format: functional
[15] = molecular target: Beta-galactosidase (Escherichia coli, UniProt Q8VNN2); test: detection-enzyme interference by beta-gal modulators – biochemical, E. coli enzyme, set 3, artefact control for CCR6 antagonist project, dose response (AID 504712); format: functional
[16] = molecular target: T5, Endoribonuclease toxin MazF (Escherichia coli K-12, UniProt P0AE70); test: substrate-only fluorescence increase artefacts – biochemical, single-stranded RNase substrate, counter-screen for MazEF activator project, dose response (AID 588502); format: functional
[17] = molecular target: T5, Endoribonuclease toxin MazF; test: activation of MazEF endoribonuclease cleavage – biochemical, fluorescence, single-stranded RNA substrate, uHTS hits, dose response (AID 588481); format: functional
[18] = molecular target: T6, E3 ubiquitin-protein ligase XIAP (Homo sapiens, UniProt P98170); test: Counter Screen using XIAP-Bir3 for Chemical Antagonists of Bir1/2 domains of IAP-family anti-apoptotic proteins. [Related pubchem assays (depositor defined):AID1018, AID1449, AID1514, AID1638, AID1749, AID1750, AID488957, AID488963]
[19] = molecular target: T6, E3 ubiquitin-protein ligase XIAP; test: small molecules displacing peptide from XIAP – biochemical, IAP family, fluorescence polarization (AID 1018); format: functional
[20] = molecular target: Troponin, cardiac muscle (Homo sapiens, UniProt P19429+P45379+P63316); test: Fluorescence-based biochemical high throughput dose response assay for activators of the calcium sensitivity of cardiac Regulated Thin Filaments (RTF). [Related pubchem assays (depositor defined):AID493008, AID493018, AID504382, AID504383]; format: protein-complex assay
[21] = test system: CHO; test: CHO cell viability loss, potency – luminescence, cytotoxicity control for TLR9-MyD88 binding inhibitor project, dose response (AID 588339); format: functional, cell-based, hamster; conditions: Cricetulus griseus;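 further: CHO cells stably coexpressing TLR9 and MyD88 fusions from primary screen; compound exposure lasted 48 hours before viability readout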
[22] = Vero E6 cell cytotoxicity, dose response, cytotoxicity control for non-replicating M. tuberculosis project, secondary assay (AID 492998); format: functional, VeroE6; conditions: Vero C1008
[23] = cells
[24] = cells; format: functional
[25] = NIH-3T3 fibroblast cytotoxicity, dose response, cytotoxicity control, cell-based, fluorescence, Alamar Blue, secondary assay (AID 2327); format: functional;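 further: NIH-3T3 mouse fibroblasts cultured with fluconazole at 8 µg/mL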
[26] = alpha-synuclein stem-loop luciferase translation blockers – H4 neuroglioma cells, luminescence, confirmation (AID 1988); format: functional, cell-based
[27] = HepG2 cell cytotoxicity, dose response, cytotoxicity control for non-replicating M. tuberculosis project (AID 489018); format: functional; conditions: Mycobacterium tuberculosis
[28] = THP-1 cell cytotoxicity, dose response, cytotoxicity control for non-replicating M. tuberculosis project (AID 489025); format: functional
[29] = molecular target: T1, Luciferin 4-monooxygenase; test: Counter Screen for Luciferase-based Assay Positives. [Related pubchem assays: 620, 618, 411 ]
[30] = molecular target: Dual specificity protein kinase CLK1 (Homo sapiens, UniProt P49759); test: inhibition of human CLK1 activity – biochemical, cherry-picked samples, selectivity assay for Dyrk1A inhibitor project, dose response (AID 588811)
[31] = fluconazole-exposed Candida albicans growth modulators – fluorescence, retest, confirmation (AID 2467); format: functional, cell-based
[32] = test system: HT-1080; test: HT1080 cell viability loss – fluorescence readout (AID 620); format: functional, cell-based; conditions: Homo sapiens
[33] = molecular target: T7, Oxysterols receptor LXR-beta (Homo sapiens, UniProt P55055); format: functional, cell-based;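 further: Cell-based luminescence dose-response assay of agonist activity at LXR, run as a confirmatory counterscreen to a daf-12 agonist screen; HEK293 cells with Gal4-LXR fusion and GAL4-driven luciferase reporter; agonist potency from rising luciferase signal of a Gal4-LXR reporter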
T7 sequence (P55055 whole entry): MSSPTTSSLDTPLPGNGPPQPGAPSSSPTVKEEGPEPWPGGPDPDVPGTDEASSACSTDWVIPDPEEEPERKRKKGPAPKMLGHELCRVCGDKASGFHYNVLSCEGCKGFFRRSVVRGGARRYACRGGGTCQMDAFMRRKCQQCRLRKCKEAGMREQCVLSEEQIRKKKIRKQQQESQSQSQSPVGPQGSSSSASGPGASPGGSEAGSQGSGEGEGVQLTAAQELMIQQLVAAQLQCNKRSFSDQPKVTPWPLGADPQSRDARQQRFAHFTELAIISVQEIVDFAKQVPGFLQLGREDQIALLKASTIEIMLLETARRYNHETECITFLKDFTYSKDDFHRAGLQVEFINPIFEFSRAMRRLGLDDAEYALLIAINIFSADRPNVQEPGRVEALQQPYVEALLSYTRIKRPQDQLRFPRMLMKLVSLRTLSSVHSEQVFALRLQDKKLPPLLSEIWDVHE

[34] = molecular target: Glycogen synthase kinase-3 beta (Homo sapiens, UniProt P49841); test: Inhibition of Human GSK-3 beta Activity Measured in Biochemical System Using Microfluidics - 2063-05_Inhibitor_Dose_DryPowder_Activity. [Related pubchem assays (depositor defined):AID2709]
[35] = molecular target: Glycogen synthase kinase-3 alpha (Homo sapiens, UniProt P49840); test: Inhibition of Human GSK-3 alpha Activity Measured in Biochemical System Using Microfluidics - 2063-06_Inhibitor_Dose_DryPowder_Activity. [Related pubchem assays (depositor defined):AID2709]
[36] = molecular target: Voltage-gated inwardly rectifying potassium channel KCNH2 (Homo sapiens, UniProt Q12809); conditions: Potency;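 further: confirmatory quantitative high-throughput screen measuring inhibition of hERG channel activity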
Voltage-gated inwardly rectifying potassium channel KCNH2, sequence (Q12809 whole entry): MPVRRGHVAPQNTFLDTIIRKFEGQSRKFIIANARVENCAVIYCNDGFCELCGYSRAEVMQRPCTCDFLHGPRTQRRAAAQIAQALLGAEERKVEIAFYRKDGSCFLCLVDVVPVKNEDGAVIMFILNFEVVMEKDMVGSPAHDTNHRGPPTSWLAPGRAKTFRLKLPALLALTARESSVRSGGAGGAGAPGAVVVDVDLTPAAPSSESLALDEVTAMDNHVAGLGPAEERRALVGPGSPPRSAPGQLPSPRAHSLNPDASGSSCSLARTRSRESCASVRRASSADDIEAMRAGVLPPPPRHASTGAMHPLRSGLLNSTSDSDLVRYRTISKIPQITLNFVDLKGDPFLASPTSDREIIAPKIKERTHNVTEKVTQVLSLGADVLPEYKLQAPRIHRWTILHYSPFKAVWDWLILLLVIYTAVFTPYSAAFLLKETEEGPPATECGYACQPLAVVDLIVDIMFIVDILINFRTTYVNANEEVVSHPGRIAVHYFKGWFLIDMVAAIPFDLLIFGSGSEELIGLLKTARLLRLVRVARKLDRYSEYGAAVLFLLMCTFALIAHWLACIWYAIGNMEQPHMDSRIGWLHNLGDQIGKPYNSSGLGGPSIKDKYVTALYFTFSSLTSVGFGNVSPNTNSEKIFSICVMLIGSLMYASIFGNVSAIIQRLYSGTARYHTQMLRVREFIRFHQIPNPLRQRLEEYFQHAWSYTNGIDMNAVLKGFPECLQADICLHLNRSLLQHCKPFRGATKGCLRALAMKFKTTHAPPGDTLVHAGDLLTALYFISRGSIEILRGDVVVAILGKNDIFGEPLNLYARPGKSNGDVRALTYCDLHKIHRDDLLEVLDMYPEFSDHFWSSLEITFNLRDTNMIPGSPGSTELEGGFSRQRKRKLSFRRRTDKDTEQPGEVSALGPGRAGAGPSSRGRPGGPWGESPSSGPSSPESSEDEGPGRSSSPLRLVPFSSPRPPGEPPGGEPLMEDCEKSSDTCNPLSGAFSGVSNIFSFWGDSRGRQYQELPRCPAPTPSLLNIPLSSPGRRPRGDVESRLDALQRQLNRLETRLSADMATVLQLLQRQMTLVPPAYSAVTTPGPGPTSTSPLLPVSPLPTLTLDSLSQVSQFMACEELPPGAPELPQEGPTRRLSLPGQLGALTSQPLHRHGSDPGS

T1 sequence (P08659 whole entry): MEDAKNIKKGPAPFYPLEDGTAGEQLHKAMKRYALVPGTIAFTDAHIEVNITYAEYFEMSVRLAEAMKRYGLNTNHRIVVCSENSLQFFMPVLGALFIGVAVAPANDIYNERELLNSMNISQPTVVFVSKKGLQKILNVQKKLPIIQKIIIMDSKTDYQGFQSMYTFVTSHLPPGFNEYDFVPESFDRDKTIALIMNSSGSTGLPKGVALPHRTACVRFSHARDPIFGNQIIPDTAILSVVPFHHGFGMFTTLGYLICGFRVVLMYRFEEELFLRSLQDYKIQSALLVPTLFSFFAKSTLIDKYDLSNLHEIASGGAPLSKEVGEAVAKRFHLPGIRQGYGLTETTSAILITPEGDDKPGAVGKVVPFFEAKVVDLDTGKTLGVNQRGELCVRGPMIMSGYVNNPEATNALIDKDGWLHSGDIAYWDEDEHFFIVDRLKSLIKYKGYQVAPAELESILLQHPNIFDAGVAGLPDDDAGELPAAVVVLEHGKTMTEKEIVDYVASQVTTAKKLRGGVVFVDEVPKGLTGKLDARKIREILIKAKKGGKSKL
T6 sequence (P98170 whole entry): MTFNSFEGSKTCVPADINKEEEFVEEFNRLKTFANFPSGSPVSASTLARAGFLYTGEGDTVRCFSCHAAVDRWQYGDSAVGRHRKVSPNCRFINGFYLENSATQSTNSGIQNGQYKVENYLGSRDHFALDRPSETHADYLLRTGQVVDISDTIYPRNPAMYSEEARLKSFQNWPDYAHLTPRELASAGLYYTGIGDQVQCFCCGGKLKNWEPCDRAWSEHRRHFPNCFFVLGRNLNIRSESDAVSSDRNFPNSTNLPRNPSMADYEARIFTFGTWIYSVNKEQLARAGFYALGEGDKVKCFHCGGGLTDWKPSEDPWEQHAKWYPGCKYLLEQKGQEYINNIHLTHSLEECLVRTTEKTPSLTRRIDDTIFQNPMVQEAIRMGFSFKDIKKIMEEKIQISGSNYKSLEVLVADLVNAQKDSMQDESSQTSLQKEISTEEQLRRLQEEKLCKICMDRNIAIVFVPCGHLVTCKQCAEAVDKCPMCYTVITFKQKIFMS
T5 sequence (P0AE70 whole entry): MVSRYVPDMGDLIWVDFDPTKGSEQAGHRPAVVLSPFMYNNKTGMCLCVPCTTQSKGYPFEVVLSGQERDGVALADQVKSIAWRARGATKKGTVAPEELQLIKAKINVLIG
Glycogen synthase kinase-3 beta, sequence (P49841 whole entry): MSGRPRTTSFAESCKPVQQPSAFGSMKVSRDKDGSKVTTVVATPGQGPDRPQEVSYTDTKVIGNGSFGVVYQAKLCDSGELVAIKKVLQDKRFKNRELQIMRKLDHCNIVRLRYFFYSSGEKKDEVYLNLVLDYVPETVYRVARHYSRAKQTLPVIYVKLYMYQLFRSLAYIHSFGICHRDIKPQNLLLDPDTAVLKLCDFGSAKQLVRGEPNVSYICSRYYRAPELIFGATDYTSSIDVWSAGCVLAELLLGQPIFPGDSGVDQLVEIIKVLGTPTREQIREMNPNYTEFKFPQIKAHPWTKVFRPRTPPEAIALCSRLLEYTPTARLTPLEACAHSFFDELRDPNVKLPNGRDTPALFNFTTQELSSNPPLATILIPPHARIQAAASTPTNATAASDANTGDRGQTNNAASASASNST
Dual specificity protein kinase CLK1, sequence (P49759 whole entry): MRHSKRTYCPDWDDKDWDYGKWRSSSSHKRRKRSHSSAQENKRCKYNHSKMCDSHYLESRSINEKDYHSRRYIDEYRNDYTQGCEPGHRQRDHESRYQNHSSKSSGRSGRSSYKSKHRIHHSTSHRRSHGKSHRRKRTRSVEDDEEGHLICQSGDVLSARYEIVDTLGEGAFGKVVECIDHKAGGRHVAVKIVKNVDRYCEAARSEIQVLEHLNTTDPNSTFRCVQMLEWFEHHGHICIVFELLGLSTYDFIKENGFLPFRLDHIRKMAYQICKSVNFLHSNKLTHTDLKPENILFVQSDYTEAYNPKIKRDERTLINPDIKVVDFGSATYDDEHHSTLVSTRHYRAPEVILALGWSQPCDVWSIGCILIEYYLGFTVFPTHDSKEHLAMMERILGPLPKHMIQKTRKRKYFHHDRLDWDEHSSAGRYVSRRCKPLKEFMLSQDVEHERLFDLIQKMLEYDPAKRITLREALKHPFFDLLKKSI
C-X-C chemokine receptor type 5, sequence (P32302 whole entry): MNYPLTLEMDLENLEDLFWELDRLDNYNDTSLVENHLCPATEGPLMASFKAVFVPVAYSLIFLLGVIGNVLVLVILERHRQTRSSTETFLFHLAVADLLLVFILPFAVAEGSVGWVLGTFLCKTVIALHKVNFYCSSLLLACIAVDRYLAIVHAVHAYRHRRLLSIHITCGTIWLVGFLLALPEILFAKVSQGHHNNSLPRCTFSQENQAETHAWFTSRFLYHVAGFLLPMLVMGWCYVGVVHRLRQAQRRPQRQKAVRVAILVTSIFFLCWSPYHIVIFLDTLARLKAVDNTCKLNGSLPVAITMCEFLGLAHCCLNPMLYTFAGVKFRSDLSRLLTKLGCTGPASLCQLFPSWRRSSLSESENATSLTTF
Beta-galactosidase, sequence (Q8VNN2 whole entry): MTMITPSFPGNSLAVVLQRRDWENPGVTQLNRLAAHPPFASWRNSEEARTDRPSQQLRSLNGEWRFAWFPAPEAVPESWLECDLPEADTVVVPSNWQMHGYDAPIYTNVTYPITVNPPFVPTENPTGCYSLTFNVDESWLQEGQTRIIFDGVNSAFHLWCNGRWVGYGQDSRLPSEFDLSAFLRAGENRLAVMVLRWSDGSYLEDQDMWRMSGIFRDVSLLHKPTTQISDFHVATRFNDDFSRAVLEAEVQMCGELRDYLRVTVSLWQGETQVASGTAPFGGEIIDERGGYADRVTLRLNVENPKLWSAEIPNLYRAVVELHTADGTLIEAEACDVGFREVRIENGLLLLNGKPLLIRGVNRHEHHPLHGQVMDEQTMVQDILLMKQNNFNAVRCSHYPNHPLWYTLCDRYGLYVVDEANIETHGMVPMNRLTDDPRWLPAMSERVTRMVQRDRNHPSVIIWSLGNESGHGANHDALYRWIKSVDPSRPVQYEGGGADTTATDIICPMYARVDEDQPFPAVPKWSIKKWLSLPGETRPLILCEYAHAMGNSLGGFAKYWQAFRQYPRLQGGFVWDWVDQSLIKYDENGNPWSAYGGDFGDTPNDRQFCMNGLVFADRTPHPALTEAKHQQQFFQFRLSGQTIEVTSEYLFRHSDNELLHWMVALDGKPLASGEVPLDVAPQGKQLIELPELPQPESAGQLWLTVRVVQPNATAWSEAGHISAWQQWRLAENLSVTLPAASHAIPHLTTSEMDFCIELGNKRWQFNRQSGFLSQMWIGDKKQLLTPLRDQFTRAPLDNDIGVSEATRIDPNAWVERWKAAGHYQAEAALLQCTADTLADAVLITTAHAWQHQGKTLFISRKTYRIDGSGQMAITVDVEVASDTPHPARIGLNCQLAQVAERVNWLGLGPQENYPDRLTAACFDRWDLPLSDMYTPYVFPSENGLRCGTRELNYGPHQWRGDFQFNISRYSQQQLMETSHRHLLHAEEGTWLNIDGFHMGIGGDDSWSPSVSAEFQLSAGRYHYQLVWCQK
Apelin receptor, sequence (P35414 whole entry, the tested form may be a part): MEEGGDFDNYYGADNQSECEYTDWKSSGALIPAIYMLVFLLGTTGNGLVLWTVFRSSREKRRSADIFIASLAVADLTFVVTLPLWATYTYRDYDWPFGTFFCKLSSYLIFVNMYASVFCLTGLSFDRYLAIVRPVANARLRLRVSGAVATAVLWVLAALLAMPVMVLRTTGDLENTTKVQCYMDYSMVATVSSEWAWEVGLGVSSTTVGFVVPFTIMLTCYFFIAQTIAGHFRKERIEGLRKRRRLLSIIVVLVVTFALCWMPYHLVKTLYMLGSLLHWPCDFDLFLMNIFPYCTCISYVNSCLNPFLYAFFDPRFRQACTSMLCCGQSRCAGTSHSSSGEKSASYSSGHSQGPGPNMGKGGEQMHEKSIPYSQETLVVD

## C[C@@H]1CN([C@@H](C)CO)C(=O)c2cccc(NC(=O)Nc3cccc4ccccc34)c2O[C@H]1CN(C)S(=O)(=O)c1ccccc1F
[1]
  AC50: 48.6 µM (active)
[2]
  AC50: 32.7 µM (active)

## COc1ccccc1/N=c1\oc2cc(O)ccc2cc1C(N)=O
[3]
  EC50: 1.15 µM (active)
[4]
  AC50: 17.3 µM (active)
[5]
  EC50: 3.1 µM (active)
[6]
  AC50: 27.5 µM (active)
[7]
  EC50: > 150 µM (not active)
[8]
  EC50: 42 µM (active)
[9]
  AC50: 0.139 µM (active)

## CN1C(=O)C(=C2CC(c3ccc(Cl)cc3)NN2)C(=O)N(C)C1=O (configuration not stated)
[10]
  IC50: 7.22 µM (active)
[11]
  IC50: 9.24 µM (inactive)
[12]
  EC50: > 260 µM (inactive)
[13]
  IC50: 5.84 µM (active)
[14]
  IC50: 14.9 µM (active)
[15]
  IC50: > 66.6 µM (inactive)

## Oc1nc(N/N=C\c2ccc(F)cc2)nc2ccccc12
[16]
  EC50: > 99 µM (inactive)
[17]
  EC50: 7.12 µM (active)

## CCC1(C)OC(c2ccccc2)=C/C(=C/C=C2C(=O)NC(=O)NC2=O)O1 (configuration not stated)
[18]
  IC50: > 100 µM (inactive)
[19]
  IC50: > 100 µM (not active)
[20]
  EC50: 2.38 µM (active)
[21]
  IC50: > 49.7 µM (inactive)

## Cc1cc(NCCCn2ccnc2)n2ncc(-c3ccc(Cl)cc3)c2n1
[22]
  CC50: 7.48 µM (active)
[23]
  EC50: > 67.6 µM (inactive)
[24]
  IC50: 11.1 µM (active)
[25]
  EC50: 21.8 µM (inconclusive)
[26]
  EC50: 9.97 µM (inconclusive)
[27]
  CC50: > 20 µM (active)
[28]
  CC50: 22 µM (active)
[29]
  EC50: 2.18 µM (active)
[30]
  AC50: 5.5 µM (active)
[31]
  EC50: 3.66 µM (active)
[32]
  EC50: 35 µM (active)
[9]
  AC50: 2.85 µM (active)
[33]
  EC50: > 67.6 µM (inactive)

## CCCn1nc(NC(=O)c2cccs2)c2cc3cc(OC)ccc3nc21
[34]
  AC50: 0.445 µM (active)
[35]
  AC50: 9.59 µM (active)

## O=C(OCCN1CCCCC1)c1c[nH]c2ccccc12
[36]
  AC50: 20 µM (inconclusive)
